In ChEMBL document CHEMBL1144762, “Diterpenoids from the roots of Suregada glomerulata” (J Nat Prod, 2008):
In brackets after ≈: the same amount, converted by molar mass.

What was measured:
Format in all cases: functional, cell-based
A549 = test: Cytotoxicity against human A549 cells by MTT assay
[1] = Cytotoxicity against human Bel 7402 cells by MTT assay
[2] = Cytotoxicity against human BGC 823 cells by MTT assay
HCT-8 = test: Cytotoxicity against human HCT8 cells by MTT assay
A2780 = test: Cytotoxicity against human A2780 cells by MTT assay

Compound	IC50 (A549)	IC50 [1]	IC50 [2]	IC50 (HCT-8)	IC50 (A2780)
CC1=C2C(=C[C@H]3[C@]4(C)CCC(=O)C(C)(C)[C@H]4CC[C@]34O[C@H]24)OC1=O	> 10 µg/mL	7.53 µg/mL (≈ 22.9 µM)	> 10 µg/mL	> 10 µg/mL	8.22 µg/mL (≈ 25 µM)
O=c1[nH]cc(F)c(=O)[nH]1 [FLUOROURACIL]	0.18 µg/mL (≈ 1.38 µM)	0.54 µg/mL (≈ 4.15 µM)	0.7 µg/mL (≈ 5.38 µM)	0.54 µg/mL (≈ 4.15 µM)	0.65 µg/mL (≈ 5 µM)
